Common to all, as to assay: NCI tumour cell line growth inhibition, 48 h
The subject of assay [1] is NCI-H226.
In assay [2] the test system is K562.
The test system of assay [3] is SK-OV-3.
Assay [4] has as its system OVCAR-8.
The subject of assay [5] is A498.
The test system of assay [6] is HCT-116.
Assay [7] concerns COLO 205.
The test system of assay [8] is M14.
Assay [9] concerns OVCAR-5.
Assay [10] deals with MDA-MB-435.
Assay [11] relates to CCRF-CEM.
The subject of assay [12] is SK-MEL-5.
For assay [13], the system named is NCI/ADR-RES.
The test system of assay [14] is SF-268.
In assay [15] the test system is 786-0.
Assay [16] concerns T47D.
In assay [17] the test system is MDA-MB-231.
Assay [18] deals with SR.
Assay [19] has as its system KM12.
Assay [20] has as its system SNB-75.

The structures appear in SMILES notation.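 These data come from cells grown in 96-well plates and exposed to compound for 48 hours at five concentrations. The concentration for 50% growth inhibition is given as GI50.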 Activity calls are given as the source filed them. Rule as the data show it: active = GI50 up to about 1.1 µM and inactive = higher.

Regarding `O=C1c2cc(Br)ccc2-c2ccc3c4ccc5c6c(ccc(c7ccc1c2c73)c64)C(=O)c1cc(Br)ccc1-5`, the GI50 in assay [1], in assay [2], in assay [3], in assay [4], in assay [5] and in assay [6] was > 100 µM (inactive) each time. Moreover, the GI50 was > 100 µM (inactive) in [7]; > 100 µM (inactive) in assay [8]; > 100 µM (inactive) in assay [9]; > 100 µM (inactive) in assay [10]; 0.787 µM (active) in assay [11]; > 100 µM (inactive) in [12]. Moreover, the GI50 is > 100 µM (inactive) in assay [13]; > 100 µM (inactive) in assay [14]; > 100 µM (inactive) in assay [15]; > 100 µM (inactive) in assay [16]; > 100 µM (inactive) in assay [17]; 2.28 µM (inactive) in assay [18]. Moreover, the GI50 in [19] is > 100 µM (inactive).
As for `CS(=O)(=O)Nc1ccc2c(c1)oc(=O)c1ccccc12`, the GI50 in [1], in assay [2], in [4], in assay [20], in [5] and in [6] was > 100 µM (inactive) throughout. Moreover, the GI50 in [7], in assay [8], in assay [9], in assay [10], in [11] and in assay [12] was > 100 µM (inactive) throughout. For the same molecule, the GI50 in [13] is > 100 µM (inactive); in assay [14], 13.3 µM (inactive); in assay [15], > 100 µM (inactive); in assay [16] it was > 100 µM (inactive); in assay [17] it was > 100 µM (inactive); in assay [18], > 100 µM (inactive). Further, the GI50 in assay [19] was > 100 µM (inactive).
Take `CN1CCN(c2cc3nc4cc(O)cc(O)c4c(O)c3cc2N)CC1`: the GI50 was 1.95 µM (inactive) in assay [1]; 14.5 µM (inactive) in assay [2]; 26.2 µM (inactive) in assay [4]; 18.2 µM (inactive) in assay [20]; 21.6 µM (inactive) in [5]; 35.8 µM (inactive) in assay [6]. The GI50 was 14 µM (inactive) in assay [7]; 37.1 µM (inactive) in assay [8]; 23.9 µM (inactive) in assay [9]; 18.1 µM (inactive) in assay [10]; 13.4 µM (inactive) in assay [11]; 18.5 µM (inactive) in [12]. For the same molecule, the GI50 in [13] is 57.5 µM (inactive); in assay [14], 15.9 µM (inactive); in assay [15] it was 38.7 µM (inactive); in assay [16] it was 21.6 µM (inactive); in assay [17], 1.53 µM (inactive); in assay [18] it was 6.14 µM (inactive). Further, the GI50 in assay [19] is 27.4 µM (inactive).
With `O=c1[nH]nc(Cc2ccccc2)n1/N=C/c1ccncc1`, the GI50 in [1] was > 100 µM (inactive); in assay [2], > 100 µM (inactive); in assay [4], > 100 µM (inactive); in assay [20], > 100 µM (inactive); in assay [5] it was 39 µM (inactive); in [6], > 100 µM (inactive). In addition, the GI50 in assay [7] is > 100 µM (inactive); in [8], > 100 µM (inactive); in assay [9], > 100 µM (inactive); in assay [10], > 100 µM (inactive); in [11] it was > 100 µM (inactive); in assay [12], 64.4 µM (inactive). Also, the GI50 in assay [13], in [14], in assay [15], in assay [16], in [17] and in assay [18] was > 100 µM (inactive) each time. Further, the GI50 in assay [19] was > 100 µM (inactive).
For the molecule `CN(C)CCCn1c(Cc2ccc(Cl)cc2)nc2cc(C(F)(F)F)ccc21`, the GI50 is 18.7 µM (inactive) in [1]; 6.41 µM (inactive) in assay [2]; 14.4 µM (inactive) in assay [3]; 17.3 µM (inactive) in [4]; 12.7 µM (inactive) in assay [5]; 12.5 µM (inactive) in assay [6]. For the same molecule, the GI50 in assay [7] is 10.7 µM (inactive); in [8] it was 12.7 µM (inactive); in assay [9], 17.7 µM (inactive); in assay [10], 12.9 µM (inactive); in assay [11], 13 µM (inactive); in assay [12], 15.8 µM (inactive). Besides, the GI50 is 15.7 µM (inactive) in [13]; 14.1 µM (inactive) in assay [14]; 13.9 µM (inactive) in assay [15]; 12 µM (inactive) in assay [16]; 13.6 µM (inactive) in [17]; 15 µM (inactive) in [18]. Also, the GI50 in assay [19] was 14.3 µM (inactive).
With `O=C(NC1CCN(Cc2ccccc2)CC1)c1ccc(I)cc1`, the GI50 is 33.4 µM (inactive) in assay [1]; 42.4 µM (inactive) in assay [2]; 44.1 µM (inactive) in [3]; > 100 µM (inactive) in [4]; > 100 µM (inactive) in assay [5]; 39.6 µM (inactive) in assay [6]. Also, the GI50 in assay [7] was 21.8 µM (inactive); in assay [8] it was 39 µM (inactive); in [9], > 100 µM (inactive); in assay [10], 33.3 µM (inactive); in assay [11], 76.7 µM (inactive); in assay [12], 17.7 µM (inactive). For the same molecule, the GI50 in [13] is > 100 µM (inactive); in [14], 63.8 µM (inactive); in assay [15], 97.5 µM (inactive); in assay [16], > 100 µM (inactive); in assay [17] it was 19.4 µM (inactive); in [18] it was > 100 µM (inactive). The GI50 in assay [19] was > 100 µM (inactive).
As to `O=C(/C=C/C=C/c1ccccc1)c1ccc2c(c1)CCCC2`, the GI50 in assay [1] was 41.1 µM (inactive); in assay [2] it was 30.9 µM (inactive); in [3], 72.9 µM (inactive); in assay [4], 33.1 µM (inactive); in [5] it was 38 µM (inactive); in assay [6] it was 31.6 µM (inactive). Further, the GI50 in assay [7] is 40.4 µM (inactive); in [8], 94.2 µM (inactive); in assay [9], > 100 µM (inactive); in assay [10], 18.9 µM (inactive); in assay [11] it was 27.8 µM (inactive); in [12], 37.2 µM (inactive). For the same molecule, the GI50 in assay [13] is 25.8 µM (inactive); in assay [14], 16.2 µM (inactive); in assay [15], 39 µM (inactive); in assay [16] it was 16 µM (inactive); in [17], 96.6 µM (inactive); in [18], 21.2 µM (inactive). The GI50 in [19] was 28.8 µM (inactive).

Values taken from ChEMBL document CHEMBL1201862, “PubChem BioAssay data set” (2004).
